Results taken from the supplement of paper PMC5908809.

Assays:
[1] = test system: normal NK cells expanded with K562-aAPC; assay: drug sensitivity score (DSS) (DSS units); higher = more sensitive; extreme values may be limits of the assay; conditions: 72 h; IL-2 2.5 ng/mL
Experimental: (§1)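 Drug sensitivity and resistance testing on K562-aAPC-expanded normal NK cells: 5 concentrations (10-fold steps over a 10,000-fold range), 72 h at 37 °C, viability by CellTiter-Glo normalised to DMSO and benzethonium chloride controls; DSS from the fitted curve.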

[2] = test system: DERL-7 (IL-2 2.5 ng/mL); assay: percent inhibition of viability; higher = more inhibition; conditions: 72 h
[3] = test system: NK-92 (IL-2 2.5 ng/mL); assay: as above; conditions: 72 h
[4] = test system: KHYG-1 (IL-2 2.5 ng/mL); assay: as above; conditions: 72 h
[5] = test system: normal primary NK cells, pool 2 (3 donors) (IL-2 2.5 ng/mL); assay: as above; conditions: 72 h
[6] = test system: YT (IL-2 2.5 ng/mL); assay: as above; conditions: 72 h
[7] = test system: normal primary NK cells, pool 1 (3 donors), resting (IL-2 0 ng/mL); assay: as above; conditions: 72 h
[8] = test system: normal primary NK cells, pool 3 (3 donors) (IL-2 2.5 ng/mL); assay: as above; conditions: 72 h
[9] = test system: KAI3 (IL-2 2.5 ng/mL); assay: as above; conditions: 72 h
[10] = test system: SNK-6 (IL-2 2.5 ng/mL); assay: as above; conditions: 72 h
[11] = test system: NK-YS (IL-2 2.5 ng/mL); assay: as above; conditions: 72 h
[12] = test system: normal primary NK cells, pool 1 (3 donors) (IL-2 2.5 ng/mL); assay: as above; conditions: 72 h
[13] = test system: NKL (IL-2 2.5 ng/mL); assay: as above; conditions: 72 h
[14] = test system: IMC-1 (IL-2 20 ng/mL); assay: as above; conditions: 72 h
[15] = test system: DERL-7 (IL-2 2.5 ng/mL); assay: drug sensitivity score (DSS) (DSS units); higher = more sensitive; extreme values may be limits of the assay; conditions: 72 h
[16] = test system: NK-92 (IL-2 2.5 ng/mL); assay: as above; conditions: 72 h
[17] = test system: KHYG-1 (IL-2 2.5 ng/mL); assay: as above; conditions: 72 h
[18] = test system: normal primary NK cells, pool 2 (3 donors) (IL-2 2.5 ng/mL); assay: as above; conditions: 72 h
[19] = test system: YT (IL-2 2.5 ng/mL); assay: as above; conditions: 72 h
[20] = test system: normal primary NK cells, pool 1 (3 donors), resting (IL-2 0 ng/mL); assay: as above; conditions: 72 h
[21] = test system: normal primary NK cells, pool 3 (3 donors) (IL-2 2.5 ng/mL); assay: as above; conditions: 72 h
[22] = test system: KAI3 (IL-2 2.5 ng/mL); assay: as above; conditions: 72 h
[23] = test system: SNK-6 (IL-2 2.5 ng/mL); assay: as above; conditions: 72 h
[24] = test system: NK-YS (IL-2 2.5 ng/mL); assay: as above; conditions: 72 h
[25] = test system: normal primary NK cells, pool 1 (3 donors) (IL-2 2.5 ng/mL); assay: as above; conditions: 72 h
[26] = test system: NKL (IL-2 2.5 ng/mL); assay: as above; conditions: 72 h
[27] = test system: IMC-1 (IL-2 20 ng/mL); assay: as above; conditions: 72 h
[28] = test system: normal NK cells expanded with K562-aAPC; assay: percent inhibition of viability; higher = more inhibition; conditions: 72 h, IL-2 2.5 ng/mL
Experimental: as §1

Nc1cc(C(F)(F)F)c(-c2cc(N3CCOCC3)nc(N3CCOCC3)n2)cn1 [Buparlisib] (max concentration tested 10000 nM)
drug sensitivity score [1]: 7.15 | percent inhibition of viability ([2]; 1 nM): -4.02% | percent inhibition of viability ([2]; 10 nM): 6.38% | percent inhibition of viability ([2]; 100 nM): 3.7% | percent inhibition of viability ([2]; 1000 nM): 42.2% | percent inhibition of viability ([2]; 10000 nM): 89.9% | percent inhibition of viability ([3]; 1 nM): 7.02% | percent inhibition of viability ([3]; 10 nM): -3.67% | percent inhibition of viability ([3]; 100 nM): 15.7% | percent inhibition of viability ([3]; 1000 nM): 52.4% | percent inhibition of viability ([3]; 10000 nM): 96.2% | percent inhibition of viability ([4]; 1 nM): -1.22% | percent inhibition of viability ([4]; 10 nM): -0.26% | percent inhibition of viability ([4]; 100 nM): 7% | percent inhibition of viability ([4]; 1000 nM): 57.9% | percent inhibition of viability ([4]; 10000 nM): 101% | percent inhibition of viability ([5]; 1 nM): -19.2% | percent inhibition of viability ([5]; 10 nM): -7.45% | percent inhibition of viability ([5]; 100 nM): 6.25% | percent inhibition of viability ([5]; 1000 nM): 8.14% | percent inhibition of viability ([5]; 10000 nM): 26.6% | percent inhibition of viability ([6]; 1 nM): -0.5% | percent inhibition of viability ([6]; 10 nM): 0.16% | percent inhibition of viability ([6]; 100 nM): 7.95% | percent inhibition of viability ([6]; 1000 nM): 41.5% | percent inhibition of viability ([6]; 10000 nM): 100% | percent inhibition of viability ([7]; 1 nM): 6.15% | percent inhibition of viability ([7]; 10 nM): -7.57% | percent inhibition of viability ([7]; 100 nM): -1.1% | percent inhibition of viability ([7]; 1000 nM): 2.62% | percent inhibition of viability ([7]; 10000 nM): 26.9% | percent inhibition of viability ([8]; 1 nM): -11.4% | percent inhibition of viability ([8]; 10 nM): -7.58% | percent inhibition of viability ([8]; 100 nM): 0% | percent inhibition of viability ([8]; 1000 nM): 0.01% | percent inhibition of viability ([8]; 10000 nM): 19.4% | percent inhibition of viability ([9]; 1 nM): -7.19% | percent inhibition of viability ([9]; 10 nM): -5.48% | percent inhibition of viability ([9]; 100 nM): -0.56% | percent inhibition of viability ([9]; 1000 nM): 43% | percent inhibition of viability ([9]; 10000 nM): 74.8% | percent inhibition of viability ([10]; 1 nM): 33.1% | percent inhibition of viability ([10]; 10 nM): 31.2% | percent inhibition of viability ([10]; 100 nM): 38.8% | percent inhibition of viability ([10]; 1000 nM): 73.2% | percent inhibition of viability ([10]; 10000 nM): 92.7% | percent inhibition of viability ([11]; 1 nM): -0.4% | percent inhibition of viability ([11]; 10 nM): -0.39% | percent inhibition of viability ([11]; 100 nM): 9.67% | percent inhibition of viability ([11]; 1000 nM): 55% | percent inhibition of viability ([11]; 10000 nM): 80% | percent inhibition of viability ([12]; 1 nM): -1.97% | percent inhibition of viability ([12]; 10 nM): -13.5% | percent inhibition of viability ([12]; 100 nM): -2.5% | percent inhibition of viability ([12]; 1000 nM): 4.32% | percent inhibition of viability ([12]; 10000 nM): 28.6% | percent inhibition of viability ([13]; 1 nM): -8.01% | percent inhibition of viability ([13]; 10 nM): -1.84% | percent inhibition of viability ([13]; 100 nM): 8.57% | percent inhibition of viability ([13]; 1000 nM): 69.1% | percent inhibition of viability ([13]; 10000 nM): 73.8% | percent inhibition of viability ([14]; 1 nM): -4.05% | percent inhibition of viability ([14]; 10 nM): -1.36% | percent inhibition of viability ([14]; 100 nM): 2.62% | percent inhibition of viability ([14]; 1000 nM): -18.8% | percent inhibition of viability ([14]; 10000 nM): 99.3% | drug sensitivity score [15]: 9.98 | drug sensitivity score [16]: 12.2 | drug sensitivity score [17]: 12.6 | drug sensitivity score [18]: 1.72 | drug sensitivity score [19]: 10.4 | drug sensitivity score [20]: 1.48 | drug sensitivity score [21]: 0.55 | drug sensitivity score [22]: 9.35 | drug sensitivity score [23]: 23.7 | drug sensitivity score [24]: 11.7 | drug sensitivity score [25]: 1.89 | drug sensitivity score [26]: 14 | drug sensitivity score [27]: 4.51 | percent inhibition of viability ([28]; 1 nM): -3.33% | percent inhibition of viability ([28]; 10 nM): -1.98% | percent inhibition of viability ([28]; 100 nM): 1.34% | percent inhibition of viability ([28]; 1000 nM): 25.6% | percent inhibition of viability ([28]; 10000 nM): 67%

Nc1ncn([C@@H]2O[C@H](CO)[C@@H](O)[C@H]2O)c(=O)n1 [Azacitidine] (max concentration tested 10000 nM)
drug sensitivity score [1]: 4 | percent inhibition of viability ([2]; 1 nM): 2.03% | percent inhibition of viability ([2]; 10 nM): 3.15% | percent inhibition of viability ([2]; 100 nM): 2.51% | percent inhibition of viability ([2]; 1000 nM): 24.5% | percent inhibition of viability ([2]; 10000 nM): 85.6% | percent inhibition of viability ([3]; 1 nM): -4.17% | percent inhibition of viability ([3]; 10 nM): -12.4% | percent inhibition of viability ([3]; 100 nM): -0.66% | percent inhibition of viability ([3]; 1000 nM): 23.1% | percent inhibition of viability ([3]; 10000 nM): 83.7% | percent inhibition of viability ([4]; 1 nM): -4.59% | percent inhibition of viability ([4]; 10 nM): -3.23% | percent inhibition of viability ([4]; 100 nM): 2.46% | percent inhibition of viability ([4]; 1000 nM): 23.2% | percent inhibition of viability ([4]; 10000 nM): 89.6% | percent inhibition of viability ([5]; 1 nM): -6.68% | percent inhibition of viability ([5]; 10 nM): -8.85% | percent inhibition of viability ([5]; 100 nM): -5.14% | percent inhibition of viability ([5]; 1000 nM): -3.32% | percent inhibition of viability ([5]; 10000 nM): 29.2% | percent inhibition of viability ([6]; 1 nM): -1.86% | percent inhibition of viability ([6]; 10 nM): -3.15% | percent inhibition of viability ([6]; 100 nM): -1.98% | percent inhibition of viability ([6]; 1000 nM): -0.51% | percent inhibition of viability ([6]; 10000 nM): 28% | percent inhibition of viability ([7]; 1 nM): -3.24% | percent inhibition of viability ([7]; 10 nM): -12.3% | percent inhibition of viability ([7]; 100 nM): 5.31% | percent inhibition of viability ([7]; 1000 nM): 4.81% | percent inhibition of viability ([7]; 10000 nM): 27.4% | percent inhibition of viability ([8]; 1 nM): -6.45% | percent inhibition of viability ([8]; 10 nM): -3.68% | percent inhibition of viability ([8]; 100 nM): -2.24% | percent inhibition of viability ([8]; 1000 nM): -3.82% | percent inhibition of viability ([8]; 10000 nM): 25.5% | percent inhibition of viability ([9]; 1 nM): -2.09% | percent inhibition of viability ([9]; 10 nM): -1.87% | percent inhibition of viability ([9]; 100 nM): 2.62% | percent inhibition of viability ([9]; 1000 nM): 26.2% | percent inhibition of viability ([9]; 10000 nM): 60.5% | percent inhibition of viability ([10]; 1 nM): -3.1% | percent inhibition of viability ([10]; 10 nM): 1% | percent inhibition of viability ([10]; 100 nM): 15.7% | percent inhibition of viability ([10]; 1000 nM): 47.1% | percent inhibition of viability ([10]; 10000 nM): 67.8% | percent inhibition of viability ([11]; 1 nM): -2.67% | percent inhibition of viability ([11]; 10 nM): -1.33% | percent inhibition of viability ([11]; 100 nM): 3.5% | percent inhibition of viability ([11]; 1000 nM): 15.9% | percent inhibition of viability ([11]; 10000 nM): 67.6% | percent inhibition of viability ([12]; 1 nM): -2.2% | percent inhibition of viability ([12]; 10 nM): -10.3% | percent inhibition of viability ([12]; 100 nM): 1.35% | percent inhibition of viability ([12]; 1000 nM): 9.04% | percent inhibition of viability ([12]; 10000 nM): 30.6% | percent inhibition of viability ([13]; 1 nM): -16.7% | percent inhibition of viability ([13]; 10 nM): -17.1% | percent inhibition of viability ([13]; 100 nM): -14.1% | percent inhibition of viability ([13]; 1000 nM): -11.2% | percent inhibition of viability ([13]; 10000 nM): 65.5% | percent inhibition of viability ([14]; 1 nM): -6.44% | percent inhibition of viability ([14]; 10 nM): -3.39% | percent inhibition of viability ([14]; 100 nM): 2.53% | percent inhibition of viability ([14]; 1000 nM): -7.92% | percent inhibition of viability ([14]; 10000 nM): 82.7% | drug sensitivity score [15]: 8.4 | drug sensitivity score [16]: 8.11 | drug sensitivity score [17]: 8.51 | drug sensitivity score [18]: 1.04 | drug sensitivity score [19]: 1.12 | drug sensitivity score [20]: 1.88 | drug sensitivity score [21]: 0.77 | drug sensitivity score [22]: 6.42 | drug sensitivity score [23]: 10.7 | drug sensitivity score [24]: 6.22 | drug sensitivity score [25]: 2.65 | drug sensitivity score [26]: 2.92 | drug sensitivity score [27]: 4.03 | percent inhibition of viability ([28]; 1 nM): -4.42% | percent inhibition of viability ([28]; 10 nM): -10.9% | percent inhibition of viability ([28]; 100 nM): -6.84% | percent inhibition of viability ([28]; 1000 nM): 4.72% | percent inhibition of viability ([28]; 10000 nM): 60.3%
